Tests used:
HTM cells [1] = assay: Genotoxic damage (comet test) in HTM cells; format: cell-based, human; details: treatment with substance only
Experimental: Commercially available endothelial cellular lines of sclerocorneal trabecular meshwork were used. Said lines undergone a physiological ageing lasted about 10 cycles of cellular replication, thus representing a validated in vitro model of sclerocorneal trabecular meshwork degeneration. Sclerocorneal human trabecular meshwork cells (HTM cells. ScienceCell Research Laboratories, CA, USA) were grown in a nutritional medium containing 10% v/v fetal bovine serum, 2 mM L-glutamine, penicillin (100 IU/mL) at 37° C. in the presence of 5% v/v CO2. […]
For the assessment of genotoxic damage, the comet test was used. […] In particular, the aspect of DNA fragmentation acquired by the comet test in HTM cells was evaluated. […] The images were then analysed at 400 magnifications by fluorescence microscope (Leica DMI 4000B) equipped with digital camera (Leica DFC 310 FX). For each slide a minimum of 100 nuclei were analysed by CASP imaging analysis system (Comet assay software project, http://www.casp.sourceforge.net). Single-strand and double-strand breaks were quantified in terms of “tail moment”, which is the product of the comet tail length multiplied by the total DNA fraction in the tail. […] The significance of differences among the various treatments was determined by ANOVA test.

[2] = system: Sclerocorneal human trabecular meshwork cells (HTM cells); assay: MTT cell viability test on HTM cells with or without H2O2 oxidative damage; format: cell-based; details: H2O2 only
Experimental: (§1) Commercially available endothelial cellular lines of sclerocorneal trabecular meshwork were used. Said lines undergone a physiological ageing lasted about 10 cycles of cellular replication, thus representing a validated in vitro model of sclerocorneal trabecular meshwork degeneration. Sclerocorneal human trabecular meshwork cells (HTM cells. ScienceCell Research Laboratories, CA, USA) were grown in a nutritional medium containing 10% v/v fetal bovine serum, 2 mM L-glutamine, penicillin (100 IU/mL) at 37° C. in the presence of 5% v/v CO2. Once cells were semi-confluent (80% covering of the plate surface), cells were collected by treatment with trypsin/EDTA and distributed in multiwell microplates at a density of 7×10^3 cells/well. Cells at 80% confluence were pre-treated for 30 minutes with 50 μL of eye drops with different polyphenolic concentration (0.15% Perilla frutescens extract in 0.25% sodium hyaluronate (high eye drops) compared with a 0.10% Perilla frutescens extract in 0.25% sodium hyaluronate (standard eye drops)). […]
At the end of the treatment, the culture medium was removed, and cell viability and genotoxic damage were evaluated. […]
In particular, cell viability was assessed using the metabolization test of 3-(4,5-dimethyithiazol-2-yl)-2,5-diphenyltetrazolium bromide (MTT). […] The results were analysed by ANOVA using the Statview statistic software.

HTM cells [3] = assay: Microscopic morphologic aspect of HTM cells in the different conditions of treatment; format: cell-based, human; details: treatment with substance only
Experimental: as §1

[4] = Corneal permeabilization / bioavailability test on whole ox eye with fluoresceine tracer; format: in vitro ADME; details: 30 minutes after application on anterior corneal surface
Experimental: The bioavailability was tested on whole ox eye (in vitro test) and on rabbit eyes (test in vivo) by applying the eye drops on the anterior corneal surface. A fluorescent tracer (fluoresceine) was added to the eye drops to follow the intraocular pharmacokinetics thereof. The transcorneal distribution of the std eye drops was evaluated by a slit lamp with determination of the fluorescence on both sides of the corneal membrane. A fluorescent tracer was added to the eye drops in order to follow the intraocular pharmacokinetics thereof. […] At the end of the prescribed time, its adsorption through the anterior chamber was assessed using a slit lamp. […] After the treatment, the fluid contained in the anterior chamber was collected and subjected to spectrofluorimetric analysis for the quantification of the tracer able to cross the corneal membrane. For the analysis, a […] spectrofluorometer (Hitachi, Tokyo, Japan) calibrated on specific fluorescence characteristics of fluoresceine (excitation 500 nm, emission 561 nm) was used. […] The ability of the std eye drops, both as such and in nanoparticle form, to pass the corneal membrane was thus determined by analysis del fluorescent track present in the fluid in the anterior chamber 30 minutes after the application of the preparation on the anterior corneal surface.

With `OO` [H2O2] the “DNA damage / fragmentation (comet test)” value (HTM cells [1]) was “nuclei are massively dissolved with evident diffusion of the fragmented DNA”, the “cytopathic effect (MTT cell viability)” value [2] was “substantial cytopathic effect” and the HTM cell morphology (HTM cells [3]) was “cells take a rounded shape, separate from the substrate and reflect the light”.

With `O=C1OC2(c3ccc(O)cc3Oc3cc(O)ccc32)c2ccccc21` [fluoresceine, fluorescein sodium] the “fluorescent tracer in the fluid of the anterior chamber (spectrofluorimetry)” value [4] was “conspicuous and specific positive signal”.

— US11253565B2, “Nanoparticle ophthalmic composition for the treatment of ocular disorders or diseases” (Eye Pharma S.p.A., priority 2017, dated 2022)
